In patent publication US11919854B2, “P2RX7 modulators in therapy” (Centre national de la recherche scientifique, priority 2018, dated 2024):

Target: T1, mouse P2RX7 (mP2RX7) (Mus musculus, UniProt Q9Z1M0)
T1 construct: expressed in transfected cells; host or cells: HEK cells
T1 sequence (Q9Z1M0 1-595): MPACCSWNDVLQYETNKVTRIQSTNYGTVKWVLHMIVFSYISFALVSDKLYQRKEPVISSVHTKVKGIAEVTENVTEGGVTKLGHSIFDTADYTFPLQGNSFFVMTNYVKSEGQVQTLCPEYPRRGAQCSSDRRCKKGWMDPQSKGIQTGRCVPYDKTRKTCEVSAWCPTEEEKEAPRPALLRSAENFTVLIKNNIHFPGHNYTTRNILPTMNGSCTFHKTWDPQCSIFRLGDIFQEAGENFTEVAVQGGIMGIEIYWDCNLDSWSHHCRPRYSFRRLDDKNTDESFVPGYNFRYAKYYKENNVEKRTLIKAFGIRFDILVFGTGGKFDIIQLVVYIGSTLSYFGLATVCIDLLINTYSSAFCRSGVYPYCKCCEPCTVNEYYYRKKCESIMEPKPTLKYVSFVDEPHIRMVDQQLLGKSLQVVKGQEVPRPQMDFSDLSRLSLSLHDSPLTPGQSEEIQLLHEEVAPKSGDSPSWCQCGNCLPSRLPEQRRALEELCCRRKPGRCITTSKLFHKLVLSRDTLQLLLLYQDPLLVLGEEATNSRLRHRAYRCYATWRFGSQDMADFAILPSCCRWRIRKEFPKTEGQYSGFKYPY
Experiment: Channel activity (Fluo4-AM) and large pore opening (Topro3) by flow cytometry, HEK cells expressing mP2RX7, 1 h BzATP
Format: cell-based
Protocol: Calcium channel activity (Fluo4AM probe) and large pore opening (Topro3 probe) were analysed by FACS on mP2RX7 HEK cells. Cells were non stimulated (NS) or treated with BzATP (500 μM) alone or in the presence of HEI2314, HEI2328, HEI2333 or HEI2336 (used at 50 μM).
Calcium channel activity (Fluo4AM probe) and large pore opening (Topro3 probe) were analysed by FACS on mock and mP2RX7 HEK cells. Cells were non stimulated (NS) or treated with BzATP (500 μM) alone or in the presence of HEI2328 used at 50 μM.
2.1. […] Cation channel activity is assayed with the Fluo4 AM (Invitrogen) probe and opening of large pore with Topro3 (Invitrogen). In each experiment 2×10^6 cells were incubated with 50 nM Fluo4-AM for 30 minutes. After washing, cells were treated with 500 μM BzATP (3′-O-(4-benzoyl)benzoyl ATP) for 1 h, or non-treated, in presence of the compounds of the invention at 50 μM. When indicated, the Topro3 probe (8.5 nM) was added during the 1 h stimulation time. Fluorescence was assayed by flow cytometry.

[1] = cells expressing mP2RX7, BzATP 500 μM

Nc1ncnc2c1ncn2[C@@H]1O[C@H](COP(=O)(O)OP(=O)(O)OP(=O)(O)O)[C@@H](OC(=O)c2ccc(C(=O)c3ccccc3)cc2)[C@H]1O [BzATP, 3′-O-(4-benzoyl)benzoyl ATP, reference compound]
Topro3 positive cells (BzATP 500 μM only, 1 h, mP2RX7 cells): 24.7% | activity in Mock cells (Mock HEK cells (no P2X receptors)): inactive | increase of Ca2+ entry [1]: 15 fold | increase of large pore opening [1]: 4 fold

O=C(NCc1ccc(Cl)cc1Cl)[C@@H]1CCC(=O)N1C(=O)Nc1ccccc1Cl [HEI2314, (S)—N^1-(2-Chlorophenyl)-N^2-(2,4-dichlorobenzyl)-5-oxopyrrolidine-1,2-dicarboxamide]
Topro3 entry (large pore opening) (compound 50 μM, BzATP 500 μM, 1 h, mP2RX7 HEK cells): increase Topro3 entry only in presence of BzATP
